Source: patent publication US20100286152A1, “N-PHENYL HYDRAZIDES AS MODULATORS OF THE GHRELIN RECEPTOR” (Glaxo Group Limited, priority 2007, published 2010)

What follows are molecules tested against T1, Human GHS-R (ghrelin receptor) (Homo sapiens, UniProt Q92847) (assay: GHSR Agonist BACMAM FLIPR Assay (Method X or Y)). Conditions: U2OS cells, maximum asymptote relative to that of the hGhrelin concentration response curve.
T1 construct: The full-length gene was transferred into pCDN for expression analysis; expressed in transfected cells; host or cells: U2OS cells transduced with human GHSR BacMam virus
T1 sequence (Q92847 whole entry): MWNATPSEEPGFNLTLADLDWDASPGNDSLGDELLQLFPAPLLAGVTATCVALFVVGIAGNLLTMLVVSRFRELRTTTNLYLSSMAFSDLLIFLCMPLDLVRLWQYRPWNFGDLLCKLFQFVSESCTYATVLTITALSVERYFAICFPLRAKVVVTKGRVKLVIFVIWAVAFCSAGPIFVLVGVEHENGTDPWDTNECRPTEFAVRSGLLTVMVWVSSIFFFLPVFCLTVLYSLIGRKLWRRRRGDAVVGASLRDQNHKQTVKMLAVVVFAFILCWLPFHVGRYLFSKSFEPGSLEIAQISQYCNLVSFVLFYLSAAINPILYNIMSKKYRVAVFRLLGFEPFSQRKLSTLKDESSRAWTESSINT
Type: cell-based
Procedure: (§1) 24 h prior to assay U2OS cells at confluence 100% were harvested and spun down. The supernatant was removed and the cells resuspended in media (DMEM+10% FBS+1% L-Glutamine). A cell count was performed using the Cedex instrumentation, and the concentration of cells was adjusted using media to give 200K cells per mL (10K cells/50 μL).
(§2) Human GHSR BACMAM virus was added to the cell suspension at an appropriate % volume (calculated for individual batches of BACMAM virus as viral titres vary). The transduced cell suspension was dispensed into FLIPR 384-well clear bottom plates, 50 μL per well. Cell plates were incubated at 37° C. overnight.
Master compound plates were prepared in 100% DMSO. 3 mM was the top concentration (giving 10 μM final concentration) and they were serially diluted 1 in 4. 1 μL from the master plate was transferred to a daughter plate, to which was added 50 μL of compound dilution (Tyrodes {Elga water+145 mM NaCl+5 mM KCl+20 mM HEPES+10 mM glucose+1 mM MgCl2+1.5 mM CaCl2}. For the agonist assay, the compound buffer also contained 0.1% BSA. This plate was used for the assay. Ghrelin was always prepared in buffer containing 0.1% BSA.
Master compound plates were prepared in 100% DMSO. 3 mM was the top concentration (giving 10 μM final concentration) and they were serially diluted 1 in 4. 1 μL from the master plate was transferred to a daughter plate, to which was added 50 μL of compound dilution (HBSS {Elga water+137 mM NaCl+5 mM KCl+0.41 mMa KH2PO4(anhyd)+20 mM HEPES+5 mM glucose+0.81 mM MgSO4(anhyd)+1.3 mM CaCl2+4.16 mM NaHCO3}. For the agonist assay, the compound buffer also contained 0.1% BSA. This plate was used for the assay. Ghrelin was always prepared in buffer containing 0.1% BSA.
Media was aspirated from cell plates using a cell washer (leaving 10 μL of media). Cells were immediately loaded with loading buffer (Tyrodes buffer-(Elga water+145 mM NaCl+5 mM KCl+20 mM HEPES+10 mM glucose+1 mM MgCl2)+1.5 mM CaCl2+0.714 mg/mL Probenecid (predissolved in 1 M NaOH)+0.25 mM brilliant black+2 μM Fluo 4 dye, and incubated at 37.5° C., 5% CO2 for 90 min. The plates were placed in a FLuorimetric Imaging Plate Reader (FLIPR, Molecular Devices) where 10 μL of compound, prepared according to method A above, was added to the cells and fluorescence measurements were taken. Maximum changes in fluorescence were plotted as a percentage of the maximum response elicited by 300 nM hGhrelin and curves fitted using a 4-parameter logistic equation to generate pEC50 values. Intrinsic activity of the compounds was calculated by using the maximum asymptote of it's concentration response curve relative to the maximum asymptote of the hGhrelin concentration response curve.
Media was aspirated from cell plates using a cell washer (leaving 10 μL of media). Cells were immediately loaded with loading buffer (HBSS (Elga water+137 mM NaCl+5 mM KCl+0.41 mM KH2PO4(anhyd)+20 mM HEPES+5 mM glucose+0.81 mM MgSO4(anhyd))+1.3 mM CaCl2+4.16 mM NaHCO3+0.714 mg/mL Probenecid (predissolved in 1 M NaOH)+0.25 mM brilliant black+2 μM Fluo 4 dye, and incubated at 37.5° C., 5% CO2 for 90 min. The plates were placed in a FLuorimetric Imaging Plate Reader (FLIPR, Molecular Devices) where 10 μL of compound, prepared according to method B above, was added to the cells and fluorescence measurements were taken. Maximum changes in fluorescence were plotted as a percentage of the maximum response elicited by 300 nM hGhrelin and curves fitted using a 4-parameter logistic equation to generate pEC50 values. Intrinsic activity of the compounds was calculated by using the maximum asymptote of it's concentration response curve relative to the maximum asymptote of the hGhrelin concentration response curve.

| Compound | intrinsic activity (IA) |
| --- | --- |
| CN1CCN(C(C(=O)NNc2cc(C(F)(F)F)cc(C(F)(F)F)c2)c2cccc3c2OC(F)(F)O3)CC1 (racemic) [Compound 46, (±)-N′-[3,5-bis(trifluoromethyl)phenyl]-2-(2,2-difluoro-1,3-benzodioxol-4-yl)-2-(4-methyl-1-piperazinyl)acetohydrazide] | 0.4 |
| Cc1ccc(C(C(=O)NNc2cc(C(F)(F)F)cc(C(F)(F)F)c2)N2CCN3CCC[C@@H]3C2)c(C)n1 (single isomer, unassigned; diastereoisomer 1) [Compound 80] | 0.4 |
| O=C(NNc1cc(C(F)(F)F)cc(C(F)(F)F)c1)C(c1ccccc1Cl)N1CCN2CCC[C@@H]2C1 (single isomer, unassigned; diastereoisomer 2) [Compound 85] | 0.4 |
| CN1CCN(C(C(=O)NNc2cc(C(F)(F)F)cc(C(F)(F)F)c2)c2ccccc2Cl)CC1 (single isomer, unassigned; enantiomer 1) [Compound 9, N′-[3,5-bis(trifluoromethyl)phenyl]-2-(2-chlorophenyl)-2-(4-methyl-1-piperazinyl)acetohydrazide-enantiomer 1] | 0.4 |
| Cc1cccnc1C(C(=O)NNc1cc(C(F)(F)F)cc(C(F)(F)F)c1)N1CCN(C)CC1 (single isomer, unassigned; enantiomer 1) [Compound 55, N′-[3,5-bis(trifluoromethyl)phenyl]-2-(4-methyl-1-piperazinyl)-2-(3-methyl-2-pyridinyl)acetohydrazide-enantiomer 1] | 0.4 |
| CN1CCC(C(C(=O)NNc2cc(Cl)cc(Cl)c2)c2cccc3ccccc23)CC1 (single isomer, unassigned; enantiomer 1) [Compound 73, N′-(3,5-dichlorophenyl)-2-(1-methyl-4-piperidinyl)-2-(1-naphthalenyl)-acetohydrazide-enantiomer 1] | 0.4 |

The remaining lines, values ahead:

| intrinsic activity (IA) | Compound |
| --- | --- |
| 0.4 | CN1CCN(C(C(=O)NNc2cc(C(F)(F)F)cc(C(F)(F)F)c2)c2cccc(OC(F)(F)F)c2)CC1 (racemic) [Compound 37, (±)-N′-[3,5-bis(trifluoromethyl)phenyl]-2-(4-methyl-1-piperazinyl)-2-{3-[(trifluoromethyl)oxy]phenyl}acetohydrazide] |
| 0.4 | CN1CCN(C(C(=O)NNc2cc(C(F)(F)F)cc(C(F)(F)F)c2)c2cccc(Cl)c2)CC1.O=CO (racemic) [Compound 45, (±)-formic acid-N′-[3,5-bis(trifluoromethyl)phenyl]-2-(3-chlorophenyl)-2-(4-methyl-1-piperazinyl)acetohydrazide] |
| 0.4 | O=C(NNc1cc(C(F)(F)F)cc(C(F)(F)F)c1)C(c1cccnc1)N1CCN2CCC[C@H]2C1 (single isomer, unassigned) [Compound 126] |
| 0.4 | CN1CCN(C(C)(C(=O)NNc2cc(C(F)(F)F)cc(C(F)(F)F)c2)c2ccccn2)CC1 (single isomer, unassigned) [Compound 130, N′-[3,5-bis(trifluoromethyl)phenyl]-2-(4-methyl-1-piperazinyl)-2-(2-pyridinyl)propanohydrazide] |
| 0.4 | O=C(NNc1cc(C(F)(F)F)cc(C(F)(F)F)c1)C(c1ccccc1Cl)N1CCN2CCC[C@H]2C1 (single isomer, unassigned; diastereoisomer 2) [Compound 83] |
| 0.4 | CN1CCN(C(C(=O)NNc2cc(C(F)(F)F)cc(C(F)(F)F)c2)c2ccc3c(c2)CCO3)CC1 (single isomer, unassigned; enantiomer 1) [Compound 20, N′-[3,5-bis(trifluoromethyl)phenyl]-2-(2,3-dihydro-1-benzofuran-5-yl)-2-(4-methyl-1-piperazinyl)acetohydrazide-enantiomer 1] |
| 0.4 | CN1CCN(C(C(=O)NNc2cc(C(F)(F)F)cc(C(F)(F)F)c2)c2cncnc2)CC1 (single isomer, unassigned; enantiomer 1) [Compound 78, N′-[3,5-bis(trifluoromethyl)phenyl]-2-(4-methyl-1-piperazinyl)-2-(5-pyrimidinyl)acetohydrazide-enantiomer 1] |
| 0.4 | Cc1cccnc1C(C(=O)NNc1cc(C(F)(F)F)cc(C(F)(F)F)c1)N1CCN(C)CC1 (single isomer, unassigned; enantiomer 2) [Compound 56, N′-[3,5-bis(trifluoromethyl)phenyl]-2-(4-methyl-1-piperazinyl)-2-(3-methyl-2-pyridinyl)acetohydrazide-enantiomer 2] |

The molecules below were run against T1, Human GHS-R (ghrelin receptor) (assay: GHSR Agonist BACMAM FLIPR Assay (Method Z)). Conditions: U2OS cells, maximum asymptote relative to maximum response of hGhrelin at 100 nM.
Type: cell-based
Procedure: as §1, §2
Master compound plates were prepared in 100% DMSO. 0.6 mM was the top concentration (giving 3 μM final concentration) and they were serially diluted 1 in 4. 1 μL from the master plate was transferred to a daughter plate, to which was added 50 μL of compound dilution (NaCl (145 mM) KCl (5 mM) CaCl2 (2 mM) MgCl2 (1 mM) HEPES (20 mM) D-(+)-Glucose (1 g/l), pluronic acid (0.05%), pH 7.3). This plate was used for the assay. Ghrelin was always prepared in compound dilution buffer containing 0.1% BSA.
Media was washed from cell plates, using a cell washer (leaving 20 μL of washing buffer (NaCl (145 mM)+KCl (5 mM)+CaCl2 (2 mM)+MgCl2 (1 mM)+HEPES (20 mM)+D-(+)-Glucose (1 g/l)+Probenecid (2.5 mM), pH 7.3). Cells were immediately loaded with loading buffer (washing buffer+pluronic acid (0.02%)+Fluo 4 dye (2 μM), and incubated at 37° C., for 60 min. After a second washing step (same as for the pre-loading, but leaving 30 μL of washing buffer), the plates were placed in a FLuorimetric Imaging Plate Reader (FLIPR, Molecular Devices) where 10 μL of compound, prepared according to method C above, was added to the cells and fluorescence measurements were taken. […] Percentage activation of the compounds was calculated by using the maximum asymptote of it's concentration response curve relative to the maximum response of the hGhrelin at 100 nM concentration.

| Compound | percentage activation |
| --- | --- |
| Cc1ccc(C(C(=O)NNc2cc(C(F)(F)F)cc(C(F)(F)F)c2)N2CCN3CCC[C@@H]3C2)cn1 (single isomer, unassigned; diastereoisomer 1) [Compound 92] | > 40% |
| Cc1ncccc1C(C(=O)NNc1cc(C(F)(F)F)cc(C(F)(F)F)c1)N1CCN2CCC[C@@H]2C1 (single isomer, unassigned; diastereoisomer 1) [Compound 94] | > 40% |
| O=C(NNc1cc(C(F)(F)F)cc(C(F)(F)F)c1)C(c1ccc2c(c1)OCCO2)N1CCN2CCC[C@@H]2C1 (single isomer, unassigned; diastereoisomer 1) [Compound 96] | > 40% |
